Reference: article PMC9632963, “Preclinical characterization and phase I clinical trial of CT053PTSA targets MET, AXL, and VEGFR2 in patients with advanced solid tumors” (Frontiers in Immunology, 2022)

Test system: patients with advanced solid tumors
Experiment: Phase I trial: safety, tolerability, DLT, MTD (CTCAE v4.0)
Format: in vivo
From the text: Eligible patients had at least one measurable lesion per RECIST v 1.1, Eastern Cooperative Oncology Group (ECOG) performance status of 0 or 1, and adequate hematological, renal, cardiac and hepatic functions. The primary objectives were to assess safety and tolerability as well as to determine the MTD, DLT, and dose recommended for further study. The secondary objectives were to assess the PK and preliminary efficacy of CT053PTSA.
An initial accelerated titration design was used in the 15 and 30 mg QD cohorts, and the “3+3” schema was used starting in the 60 mg QD cohort. […] The study protocol was approved by an institutional review board at Sun Yat-sen University Cancer Center. Written informed consent was obtained from all the patients before enrollment.
Descriptive statistics of safety are presented per CTCAE v4.0. Subjects who received at least one dose of CT053PTSA were considered eligible to be evaluated and included in safety analyses. […] According to the RECIST 1.1 criteria, imaging examinations were performed at each specified time point in the protocol. The antitumor activity was measured by RECIST1.1.

## Cc1c(C(=O)Nc2ccc(Oc3ccnc4cc(OCC(C)(C)O)ccc34)c(F)c2)c(=O)n(-c2ccccc2)n1C [CT053PTSA]
100mg (n = 7)
  Blood sodium decreased, ≥ G3: 0 n (%)
  Blood uric acid increased, All: 0 n (%)
  Blood uric acid increased, ≥ G3: 0 n (%)
  Decreased appetite, All: 2 (28.6) n (%)
  Decreased appetite, ≥ G3: 0 n (%)
  Diarrhea, All: 1 (14.3) n (%)
  Diarrhea, ≥ G3: 0 n (%)
  Dizziness, All: 1 (14.3) n (%)
  Dizziness, ≥ G3: 0 n (%)
  Dry mouth, All: 1 (14.3) n (%)
  Dry mouth, ≥ G3: 0 n (%)
  Electrocardiogram QT prolonged, All: 1 (14.3) n (%)
  Electrocardiogram QT prolonged, ≥ G3: 0 n (%)
  Electrolyte imbalance, All: 0 n (%)
  Electrolyte imbalance, ≥ G3: 0 n (%)
  Hemoglobin decreased, All: 0 n (%)
  Hemoglobin decreased, ≥ G3: 0 n (%)
  Hypertension, All: 2 (28.6) n (%)
  Hypertension, ≥ G3: 0 n (%)
  Hyponatremia, All: 1 (14.3) n (%)
  Hyponatremia, ≥ G3: 0 n (%)
  Hypoparathyroidism, All: 0 n (%)
  Hypoparathyroidism, ≥ G3: 0 n (%)
  Mouth ulceration, All: 0 n (%)
  Mouth ulceration, ≥ G3: 0 n (%)
  Nausea, All: 1 (14.3) n (%)
  Nausea, ≥ G3: 0 n (%)
  Oropharyngeal pain, All: 1 (14.3) n (%)
  Oropharyngeal pain, ≥ G3: 0 n (%)
  Pain, All: 1 (14.3) n (%)
  Pain, ≥ G3: 0 n (%)
  Palmar-plantar erythrodysaesthesia syndrome, All: 1 (14.3) n (%)
  Palmar-plantar erythrodysaesthesia syndrome, ≥ G3: 0 n (%)
  Platelet count decreased, All: 4 (57.1) n (%)
  Platelet count decreased, ≥ G3: 1 (14.3) n (%)
  Proteinuria, All: 1 (14.3) n (%)
  Proteinuria, ≥ G3: 0 n (%)
  Pyrexia, All: 0 n (%)
  Pyrexia, ≥ G3: 0 n (%)
  Sinus bradycardia, All: 0 n (%)
  Sinus bradycardia, ≥ G3: 0 n (%)
  Stomatitis, All: 1 (14.3) n (%)
  Stomatitis, ≥ G3: 0 n (%)
  Vomiting, All: 0 n (%)
  Vomiting, ≥ G3: 0 n (%)
  leukopenia, All: 4 (57.1) n (%)
  leukopenia, ≥ G3: 0 n (%)
  neutropenia, All: 4 (57.1) n (%)
  neutropenia, ≥ G3: 0 n (%)
  transaminase elevation, All: 6 (85.7) n (%)
  transaminase elevation, ≥ G3: 1 (14.3) n (%)
100 mg QD
  patients with DLT / patients eligible for DLT assessment: 1/6 and one out of six
150mg (n = 5)
  Anaemia, All: 0 n (%)
  Anaemia, ≥ G3: 0 n (%)
  Blood chloride decreased, All: 0 n (%)
  Blood chloride decreased, ≥ G3: 0 n (%)
  Blood creatinine increased, All: 1 (20) n (%)
  Blood creatinine increased, ≥ G3: 0 n (%)
  Blood potassium decreased, All: 1 (20) n (%)
  Blood potassium decreased, ≥ G3: 0 n (%)
  Blood sodium decreased, All: 1 (20) n (%)
  Blood sodium decreased, ≥ G3: 1 (20) n (%)
  Blood uric acid increased, All: 1 (20) n (%)
  Blood uric acid increased, ≥ G3: 0 n (%)
  Decreased appetite, All: 3 (60) n (%)
  Decreased appetite, ≥ G3: 1 (20) n (%)
  Diarrhea, All: 1 (20) n (%)
  Diarrhea, ≥ G3: 0 n (%)
  Dizziness, All: 0 n (%)
  Dizziness, ≥ G3: 0 n (%)
  Dry mouth, All: 0 n (%)
  Dry mouth, ≥ G3: 0 n (%)
  Electrocardiogram QT prolonged, All: 1 (20) n (%)
  Electrocardiogram QT prolonged, ≥ G3: 0 n (%)
  Electrolyte imbalance, All: 1 (20) n (%)
  Electrolyte imbalance, ≥ G3: 0 n (%)
  Hemoglobin decreased, All: 1 (20) n (%)
  Hemoglobin decreased, ≥ G3: 0 n (%)
  Hypertension, All: 2 (40) n (%)
  Hypertension, ≥ G3: 1 (20) n (%)
  Hyponatremia, All: 0 n (%)
  Hyponatremia, ≥ G3: 0 n (%)
  Hypoparathyroidism, All: 1 (20) n (%)
  Hypoparathyroidism, ≥ G3: 0 n (%)
  Mouth ulceration, All: 1 (20) n (%)
  Mouth ulceration, ≥ G3: 0 n (%)
  Nausea, All: 1 (20) n (%)
  Nausea, ≥ G3: 0 n (%)
  Oropharyngeal pain, All: 0 n (%)
  Oropharyngeal pain, ≥ G3: 0 n (%)
  Pain, All: 0 n (%)
  Pain, ≥ G3: 0 n (%)
  Palmar-plantar erythrodysaesthesia syndrome, All: 0 n (%)
  Palmar-plantar erythrodysaesthesia syndrome, ≥ G3: 0 n (%)
  Platelet count decreased, All: 1 (20) n (%)
  Platelet count decreased, ≥ G3: 1 (20) n (%)
  Proteinuria, All: 0 n (%)
  Proteinuria, ≥ G3: 0 n (%)
  Pyrexia, All: 1 (20) n (%)
  Pyrexia, ≥ G3: 0 n (%)
  Sinus bradycardia, All: 1 (20) n (%)
  Sinus bradycardia, ≥ G3: 0 n (%)
  Stomatitis, All: 1 (20) n (%)
  Stomatitis, ≥ G3: 1 (20) n (%)
  Vomiting, All: 1 (20) n (%)
  Vomiting, ≥ G3: 0 n (%)
  leukopenia, All: 3 (60) n (%)
  leukopenia, ≥ G3: 1 (20) n (%)
  neutropenia, All: 2 (40) n (%)
  neutropenia, ≥ G3: 0 n (%)
  transaminase elevation, All: 4 (80) n (%)
  transaminase elevation, ≥ G3: 0 n (%)
150 mg QD
  patients with DLT / patients eligible for DLT assessment: 2/4 and Two of four
All (n = 20)
  Anaemia, All: 1 (5) n (%)
  Anaemia, ≥ G3: 0 n (%)
  Blood chloride decreased, All: 1 (5) n (%)
  Blood chloride decreased, ≥ G3: 0 n (%)
  Blood creatinine increased, All: 1 (5) n (%)
  Blood creatinine increased, ≥ G3: 0 n (%)
  Blood potassium decreased, All: 1 (5) n (%)
  Blood potassium decreased, ≥ G3: 0 n (%)
  Blood sodium decreased, All: 1 (5) n (%)
  Blood sodium decreased, ≥ G3: 1 (5) n (%)
  Blood uric acid increased, All: 1 (5) n (%)
  Blood uric acid increased, ≥ G3: 0 n (%)
  Decreased appetite, All: 6 (30) n (%)
  Decreased appetite, ≥ G3: 1 (5) n (%)
  Diarrhea, All: 2 (10) n (%)
  Diarrhea, ≥ G3: 0 n (%)
  Dizziness, All: 1 (5) n (%)
  Dizziness, ≥ G3: 0 n (%)
  Dry mouth, All: 1 (5) n (%)
  Dry mouth, ≥ G3: 0 n (%)
  Electrocardiogram QT prolonged, All: 3 (15) n (%)
  Electrocardiogram QT prolonged, ≥ G3: 0 n (%)
  Electrolyte imbalance, All: 1 (5) n (%)
  Electrolyte imbalance, ≥ G3: 0 n (%)
  Hemoglobin decreased, All: 1 (5) n (%)
  Hemoglobin decreased, ≥ G3: 0 n (%)
  Hypertension, All: 4 (20) n (%)
  Hypertension, ≥ G3: 1 (5) n (%)
  Hyponatremia, All: 2 (10) n (%)
  Hyponatremia, ≥ G3: 0 n (%)
  Hypoparathyroidism, All: 1 (5) n (%)
  Hypoparathyroidism, ≥ G3: 0 n (%)
  Mouth ulceration, All: 1 (5) n (%)
  Mouth ulceration, ≥ G3: 0 n (%)
  Nausea, All: 2 (10) n (%)
  Nausea, ≥ G3: 0 n (%)
  Oropharyngeal pain, All: 1 (5) n (%)
  Oropharyngeal pain, ≥ G3: 0 n (%)
  Pain, All: 1 (5) n (%)
  Pain, ≥ G3: 0 n (%)
  Palmar-plantar erythrodysaesthesia syndrome, All: 1 (5) n (%)
  Palmar-plantar erythrodysaesthesia syndrome, ≥ G3: 0 n (%)
  Platelet count decreased, All: 6 (30) n (%)
  Platelet count decreased, ≥ G3: 2 (10) n (%)
  Proteinuria, All: 1 (5) n (%)
  Proteinuria, ≥ G3: 0 n (%)
  Pyrexia, All: 1 (5) n (%)
  Pyrexia, ≥ G3: 0 n (%)
  Sinus bradycardia, All: 1 (5) n (%)
  Sinus bradycardia, ≥ G3: 0 n (%)
  Stomatitis, All: 2 (10) n (%)
  Stomatitis, ≥ G3: 1 (5) n (%)
  Vomiting, All: 1 (5) n (%)
  Vomiting, ≥ G3: 0 n (%)
  leukopenia, All: 9 (45) n (%)
  leukopenia, ≥ G3: 1 (5) n (%)
  neutropenia, All: 7 (35) n (%)
  neutropenia, ≥ G3: 0 n (%)
  transaminase elevation, ≥ G3: 1 (5) n (%)
All patients n = 20
  TRAE any grade: decreased appetite: 30%
  TRAE any grade: decreased platelet count: 30%
  TRAE any grade: hypertension: 20%
  TRAE any grade: leukopenia: 45%
  TRAE any grade: neutropenia: 35%
  TRAE any grade: transaminase elevation: 65%
  grade 3 TRAE: decreased appetite: 5%
  grade 3 TRAE: decreased blood sodium: 5%
  grade 3 TRAE: decreased platelet count: 10%
  grade 3 TRAE: elevated transaminase: 5%
  grade 3 TRAE: hypertension: 5%
  grade 3 TRAE: leukopenia: 5%
  grade 3 TRAE: stomatitis: 5%
  patients with at least one adverse event (AE): 95%
  patients with grade 3 TRAEs: 15%
  patients with treatment-related adverse events (TRAEs): 80%
In vivo
  recommended dose for further study: 60~100 mg QD
Oral QD
  MTD: 100 mg
